Test results as given in patent US8614333B2, “Acenaphtho heterocyclic compound and application thereof” (Dalian University of Technology, priority 2010, dated 2013).

These molecules were tested against GST-Bcl-2 protein (Homo sapiens, UniProt P10415) (assay: Fluorescence polarization assay, competition with FAM-Bid peptide for Bcl-2). Settings: GST-Bcl-2 40 nM, FAM-Bid 5 nM, 4 hours of incubation, read-out: Bcl-2 binding constants.
Experimental: (§1) A Bid BH3 peptide (amino acids: 79-99: […]) having 21 amino acids was synthesized and marked with 6-carboxyfluorescein N-succinimidyl ester (FAM) as fluorescent tag (FAM-Bid) at the N-terminal. The reaction system used in the competitive binding experiment was GST-Bcl-2 protein (40 nM) or Mcl-1 protein, which was dissolved in the reaction buffer (100 mM K3PO4, pH 7.5; 100 μg/ml bovine γ albumin; 0.02% sodium azide) together with FAM-Bid polypeptide (5 nM). In a 96-well plate, 100 µL of the reaction system was added into each well. Then 1 μL different concentration of compound 13 mother solution to be detected dissolved in DMSO was added there into until the final concentration met the experimental design requirements. Meanwhile, two control groups were established, one with the reaction system only containing Bcl-2 or Mcl-1 and FAM-Bid (equivalent to 0% inhibition rate), the other with the reaction system only containing FAM-Bid peptide. After 4 hours of incubation, the 96-well plate was detected by enzyme-labelled meter. The fluorescent polarization value (mP) was tested at […]. Ki value was deduced according to calculation formula.
(§2) The BH3 analogous degrees of other 12 compounds were detected by using the experimental method as described above.

Chain of GST-Bcl-2 protein (P10415 whole entry): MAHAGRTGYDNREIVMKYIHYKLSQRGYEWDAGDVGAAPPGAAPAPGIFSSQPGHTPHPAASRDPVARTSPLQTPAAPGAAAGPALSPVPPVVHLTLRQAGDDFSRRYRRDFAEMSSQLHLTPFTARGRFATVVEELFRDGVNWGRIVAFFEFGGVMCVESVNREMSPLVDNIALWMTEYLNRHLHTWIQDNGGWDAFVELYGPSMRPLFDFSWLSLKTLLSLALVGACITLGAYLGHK

Row | SMILES | Ki
1 | CC(C)Cc1ccc(Sc2ccc3c4c(cccc24)C2=NC(=O)C(C#N)=C23)cc1 [Compound 18, 3-(4-Isobutyl-phenylsulfanyl)-8-oxo-8H-acenaphtho[1,2-b]pyrrole-9-carbonitrile] | 120 nM
2 | CC(C)Cc1ccc(Oc2ccc3c4c(cccc24)C2=NC(=O)C(C#N)=C23)cc1 [Compound 15, 3-(4-Isobutyl-phenoxy)-8-oxo-8H-acenaphtho[1,2-b]pyrrole-9-carbonitrile] | 140 nM

Each molecule was assayed against Mcl-1 protein (Homo sapiens, UniProt Q07820) (assay: Fluorescence polarization assay, competition with FAM-Bid peptide for Mcl-1). Settings: FAM-Bid 5 nM, 4 hours of incubation, read-out: Mcl-1 binding constants.
Chain of Mcl-1 protein (Q07820 whole entry, species assumed): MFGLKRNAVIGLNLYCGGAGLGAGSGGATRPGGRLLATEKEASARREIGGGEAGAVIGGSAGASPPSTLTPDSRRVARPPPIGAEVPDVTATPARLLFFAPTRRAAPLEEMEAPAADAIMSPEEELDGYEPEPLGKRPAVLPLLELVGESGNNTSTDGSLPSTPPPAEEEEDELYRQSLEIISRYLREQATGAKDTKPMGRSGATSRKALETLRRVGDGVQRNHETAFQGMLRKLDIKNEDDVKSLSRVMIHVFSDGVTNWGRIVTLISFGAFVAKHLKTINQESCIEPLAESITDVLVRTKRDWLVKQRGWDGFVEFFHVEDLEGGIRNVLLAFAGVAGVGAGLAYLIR
Experimental: as §1, §2

Row | SMILES | Ki
3 | CC(C)Cc1ccc(Sc2ccc3c4c(cccc24)C2=NC(=O)C(C#N)=C23)cc1 [Compound 18, 3-(4-Isobutyl-phenylsulfanyl)-8-oxo-8H-acenaphtho[1,2-b]pyrrole-9-carbonitrile] | 8 nM
4 | CC(C)Cc1ccc(Oc2ccc3c4c(cccc24)C2=NC(=O)C(C#N)=C23)cc1 [Compound 15, 3-(4-Isobutyl-phenoxy)-8-oxo-8H-acenaphtho[1,2-b]pyrrole-9-carbonitrile] | 12 nM

These molecules were tested against T1, interaction between Bcl-2 and Bax (Homo sapiens, UniProt P10415) (assay: Intracellular FRET, Bcl-2-CFP/Bax-YFP in Hela cells). Settings: not given.
T1 construct: expressed in transfected cells; host or cells: Hela cells
T1 sequence (P10415 whole entry): as the sequence (P10415 whole entry) above
Format: cell-based
Summary of the method: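 Hela cells transfected with Bcl-2-CFP and/or Bax-YFP plasmids, then treated with compound in DMSO at 2, 5, 10 and 15 μM for 24 h, or at 40 μM for 3, 6 and 24 h. FRET taken as the 527/475 nm emission ratio at 433 nm excitation, with singly transfected controls set to 1.0. Viability checked by MTT.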

Row | SMILES | Doses (concentration at which the compound interfered with the interaction between Bcl-2 and Bax)
5 | CC(C)Cc1ccc(Sc2ccc3c4c(cccc24)C2=NC(=O)C(C#N)=C23)cc1 [Compound 18, 3-(4-Isobutyl-phenylsulfanyl)-8-oxo-8H-acenaphtho[1,2-b]pyrrole-9-carbonitrile] | 0.5 µM
6 | CC(C)Cc1ccc(Oc2ccc3c4c(cccc24)C2=NC(=O)C(C#N)=C23)cc1 [Compound 15, 3-(4-Isobutyl-phenoxy)-8-oxo-8H-acenaphtho[1,2-b]pyrrole-9-carbonitrile] | 0.5 µM

Same assay, conditions: at the concentration given

Row | SMILES | Time (time period after which the interaction between Bcl-2 and Bax was interfered)
7 | CC(C)Cc1ccc(Sc2ccc3c4c(cccc24)C2=NC(=O)C(C#N)=C23)cc1 [Compound 18, 3-(4-Isobutyl-phenylsulfanyl)-8-oxo-8H-acenaphtho[1,2-b]pyrrole-9-carbonitrile] | 4 h
8 | CC(C)Cc1ccc(Oc2ccc3c4c(cccc24)C2=NC(=O)C(C#N)=C23)cc1 [Compound 15, 3-(4-Isobutyl-phenoxy)-8-oxo-8H-acenaphtho[1,2-b]pyrrole-9-carbonitrile] | 4 h

The molecules below were run on BAX shift towards the chondriosome (assay: Co-localization between Bax protein and chondriosome, Bax-YFP in MCF-7 cells). Settings: Bax-YFP/Mito Tracker Red.
Format: cell-based
Summary of the method: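 MCF-7 cells transfected with Bax-YFP plasmid; 24 h later treated with 10 μM compound for 6 h, then stained 10 min with 50 nM MitoTracker Red CMXRos. Dual-channel laser confocal imaging; Bax mitochondrial localization read as green/red overlap (orange).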

Row | SMILES | Doses (concentration at which the compound drove the BAX to shift towards the chondriosome)
9 | CC(C)Cc1ccc(Sc2ccc3c4c(cccc24)C2=NC(=O)C(C#N)=C23)cc1 [Compound 18, 3-(4-Isobutyl-phenylsulfanyl)-8-oxo-8H-acenaphtho[1,2-b]pyrrole-9-carbonitrile] | 5.0 µM
10 | CC(C)Cc1ccc(Oc2ccc3c4c(cccc24)C2=NC(=O)C(C#N)=C23)cc1 [Compound 15, 3-(4-Isobutyl-phenoxy)-8-oxo-8H-acenaphtho[1,2-b]pyrrole-9-carbonitrile] | 5.0 µM

Same assay, conditions: at the concentration given

Row | SMILES | Time (time period after which BAX shifted towards the chondriosome)
11 | CC(C)Cc1ccc(Sc2ccc3c4c(cccc24)C2=NC(=O)C(C#N)=C23)cc1 [Compound 18, 3-(4-Isobutyl-phenylsulfanyl)-8-oxo-8H-acenaphtho[1,2-b]pyrrole-9-carbonitrile] | 4 h
12 | CC(C)Cc1ccc(Oc2ccc3c4c(cccc24)C2=NC(=O)C(C#N)=C23)cc1 [Compound 15, 3-(4-Isobutyl-phenoxy)-8-oxo-8H-acenaphtho[1,2-b]pyrrole-9-carbonitrile] | 3 h

These molecules were tested on MCF-7 cells (assay: Cytotoxicity by MTT, cells without plasmid transfection). Settings: Homo sapiens, MCF7; MCF-7, MTT, 48 hours; read-out: IC50 value in untransfected cells.
Format: cell-based
Summary of the method: (§3)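 MCF-7 cells transfected with 3 μg BAX/BAK interfering plasmid by calcium phosphate, knockdown checked by Western; untransfected cells run in parallel. Cells treated with a compound concentration gradient for 48 hours; viability by MTT, IC50 derived.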

Row | SMILES | IC50
13 | CC(C)Cc1ccc(Sc2ccc3c4c(cccc24)C2=NC(=O)C(C#N)=C23)cc1 [Compound 18, 3-(4-Isobutyl-phenylsulfanyl)-8-oxo-8H-acenaphtho[1,2-b]pyrrole-9-carbonitrile] | 6.8 µM
14 | CC(C)Cc1ccc(Oc2ccc3c4c(cccc24)C2=NC(=O)C(C#N)=C23)cc1 [Compound 15, 3-(4-Isobutyl-phenoxy)-8-oxo-8H-acenaphtho[1,2-b]pyrrole-9-carbonitrile] | 7.1 µM

The molecules below were run on MCF-7 cells transfected with BAX/BAK interfering plasmid (assay: Cytotoxicity by MTT, cells transfected with BAX/BAK interfering plasmid). Settings: Homo sapiens, MCF7; MCF-7 with BAX/BAK interfering plasmid, MTT, 48 hours.
Format: cell-based
Summary of the method: as §3

Row | SMILES | IC50
15 | CC(C)Cc1ccc(Sc2ccc3c4c(cccc24)C2=NC(=O)C(C#N)=C23)cc1 [Compound 18, 3-(4-Isobutyl-phenylsulfanyl)-8-oxo-8H-acenaphtho[1,2-b]pyrrole-9-carbonitrile] | > 50 µM
16 | CC(C)Cc1ccc(Oc2ccc3c4c(cccc24)C2=NC(=O)C(C#N)=C23)cc1 [Compound 15, 3-(4-Isobutyl-phenoxy)-8-oxo-8H-acenaphtho[1,2-b]pyrrole-9-carbonitrile] | > 50 µM

These molecules were tested on Bcl-2 (assay: Western blotting, semiquantitative analysis of Bcl-2 protein bands). Settings: 6 h; control = 1; tumor cells.
Format: cell-based
Experimental: (§4) The interest protein was detected by the corresponding antibody. The expression of the interest protein in the cells was detected by horseradish peroxidase-labeled secondary antibodies in combination with ECL coloration method. […] The concentration of the protein bands in the Western images were carried out semiquantitative analysis and normalization treatment with KODAK Gel Logic 1500 imaging system software.

Row | SMILES | concentration of the protein bands (semiquantitative, normalized), Bcl-2
17 | CC(C)Cc1ccc(Sc2ccc3c4c(cccc24)C2=NC(=O)C(C#N)=C23)cc1 [Compound 18, 3-(4-Isobutyl-phenylsulfanyl)-8-oxo-8H-acenaphtho[1,2-b]pyrrole-9-carbonitrile] | 0.99
18 | CC(C)Cc1ccc(Oc2ccc3c4c(cccc24)C2=NC(=O)C(C#N)=C23)cc1 [Compound 15, 3-(4-Isobutyl-phenoxy)-8-oxo-8H-acenaphtho[1,2-b]pyrrole-9-carbonitrile] | 0.99

Same assay, conditions: 12 h; control = 1; tumor cells

Row | SMILES | concentration of the protein bands (semiquantitative, normalized), Bcl-2
19 | CC(C)Cc1ccc(Sc2ccc3c4c(cccc24)C2=NC(=O)C(C#N)=C23)cc1 [Compound 18, 3-(4-Isobutyl-phenylsulfanyl)-8-oxo-8H-acenaphtho[1,2-b]pyrrole-9-carbonitrile] | 0.99
20 | CC(C)Cc1ccc(Oc2ccc3c4c(cccc24)C2=NC(=O)C(C#N)=C23)cc1 [Compound 15, 3-(4-Isobutyl-phenoxy)-8-oxo-8H-acenaphtho[1,2-b]pyrrole-9-carbonitrile] | 0.99

Same assay, conditions: 18 h; control = 1; tumor cells

Row | SMILES | concentration of the protein bands (semiquantitative, normalized), Bcl-2
21 | CC(C)Cc1ccc(Sc2ccc3c4c(cccc24)C2=NC(=O)C(C#N)=C23)cc1 [Compound 18, 3-(4-Isobutyl-phenylsulfanyl)-8-oxo-8H-acenaphtho[1,2-b]pyrrole-9-carbonitrile] | 0.36
22 | CC(C)Cc1ccc(Oc2ccc3c4c(cccc24)C2=NC(=O)C(C#N)=C23)cc1 [Compound 15, 3-(4-Isobutyl-phenoxy)-8-oxo-8H-acenaphtho[1,2-b]pyrrole-9-carbonitrile] | 0.39

Same assay, conditions: 24 h; control = 1; tumor cells

Row | SMILES | concentration of the protein bands (semiquantitative, normalized), Bcl-2
23 | CC(C)Cc1ccc(Sc2ccc3c4c(cccc24)C2=NC(=O)C(C#N)=C23)cc1 [Compound 18, 3-(4-Isobutyl-phenylsulfanyl)-8-oxo-8H-acenaphtho[1,2-b]pyrrole-9-carbonitrile] | 0.10
24 | CC(C)Cc1ccc(Oc2ccc3c4c(cccc24)C2=NC(=O)C(C#N)=C23)cc1 [Compound 15, 3-(4-Isobutyl-phenoxy)-8-oxo-8H-acenaphtho[1,2-b]pyrrole-9-carbonitrile] | 0.12

The molecules below were run on Mcl-1 (assay: Western blotting, semiquantitative analysis of Mcl-1 protein bands). Settings: 2 h; control = 1; tumor cells.
Format: cell-based
Experimental: as §4

Row | SMILES | concentration of the protein bands (semiquantitative, normalized), Mcl-1
25 | CC(C)Cc1ccc(Sc2ccc3c4c(cccc24)C2=NC(=O)C(C#N)=C23)cc1 [Compound 18, 3-(4-Isobutyl-phenylsulfanyl)-8-oxo-8H-acenaphtho[1,2-b]pyrrole-9-carbonitrile] | 0.66
26 | CC(C)Cc1ccc(Oc2ccc3c4c(cccc24)C2=NC(=O)C(C#N)=C23)cc1 [Compound 15, 3-(4-Isobutyl-phenoxy)-8-oxo-8H-acenaphtho[1,2-b]pyrrole-9-carbonitrile] | 0.69

Same assay, conditions: 6 h; control = 1; tumor cells

Row | SMILES | concentration of the protein bands (semiquantitative, normalized), Mcl-1
27 | CC(C)Cc1ccc(Sc2ccc3c4c(cccc24)C2=NC(=O)C(C#N)=C23)cc1 [Compound 18, 3-(4-Isobutyl-phenylsulfanyl)-8-oxo-8H-acenaphtho[1,2-b]pyrrole-9-carbonitrile] | 0.39
28 | CC(C)Cc1ccc(Oc2ccc3c4c(cccc24)C2=NC(=O)C(C#N)=C23)cc1 [Compound 15, 3-(4-Isobutyl-phenoxy)-8-oxo-8H-acenaphtho[1,2-b]pyrrole-9-carbonitrile] | 0.42
